Columns and labels:
[1] = system: NCI-H460; assay: Anti-proliferative activity, sulphorodamine B test; type: cell-based; conditions: Homo sapiens, 24 h exposure, 48 h recovery
Procedure: (§1) The biological activity of DHA and ART on tumour cells survival was evaluated. The latter were seeded in 96-well tissue culture plates at approximately 10% confluence and were allowed to attach and recover for at least 24 h before being exposed to DHA or ART for 24 h at 37° C. They were then washed to remove DHA and ART and left to recover for 48 hours in medium culture. The medium culture was then removed and cells were washed three times with PBS. The plates were then incubated for on ice for 1 hour with 200 μl of PBS and 50 μl of cold 80% TCA before being washed with distilled water, dried on paper and finally at 40° C. for 5 minutes. 200 μl of 0.4% sulphorodamine B in 1% acetic acid were added and the incubation was prolonged for 30 minutes. Sulphorodamine B was removed, and the plates were washed 3 times with 1% acetic acid. They were finally dried on paper followed by standing at 40° C. for 5 minutes. Then 200 μl Tris 10 mM were added, the plates were kept under stirring for 20 minutes. Cell survival was determined as optical density at 540 nm by means of a Multiskan spectrofluorimeter. The amount of cells killed was expressed as the percentage decrease in sulphorodamine B binding compared to control cultures. IC50 were generated with their standard deviations by the ALLFIT program.

[2] = system: MCF-7/Dx MDR; assay: Anti-proliferative activity, sulphorodamine B test; type: cell-based
Procedure: as §1

[3] = system: HCT116; assay: Anti-proliferative activity, sulphorodamine B test; type: cell-based; conditions: Homo sapiens, HCT-116, 24 h exposure, 48 h recovery
Procedure: as §1

[4] = system: A2780; assay: Anti-proliferative activity, sulphorodamine B test; type: cell-based; conditions: Homo sapiens, 24 h exposure, 48 h recovery
Procedure: as §1

[5] = system: HT29; assay: Anti-proliferative activity, sulphorodamine B test; type: cell-based; conditions: Homo sapiens, HT-29, 24 h exposure, 48 h recovery
Procedure: as §1

[6] = system: SW620; assay: Anti-proliferative activity, sulphorodamine B test; type: cell-based; conditions: Homo sapiens, SW-620, 24 h exposure, 48 h recovery
Procedure: as §1

[7] = system: LoVo; assay: Anti-proliferative activity, sulphorodamine B test; type: cell-based; conditions: Homo sapiens, 24 h exposure, 48 h recovery
Procedure: as §1

[8] = system: LoVo/Dx MDR; assay: Anti-proliferative activity, sulphorodamine B test; type: cell-based; conditions: LoVo/Dx MDR; 24 h exposure, 48 h recovery
Procedure: as §1

[9] = system: MCF-7; assay: Anti-proliferative activity, sulphorodamine B test; type: cell-based; conditions: Homo sapiens, MCF7, 24 h exposure, 48 h recovery
Procedure: as §1

[10] = system: NCI-H460 non-small cell lung carcinoma; assay: In vivo antitumor activity, s.c. xenograft in CD1 nude mice; conditions: DHA 200 mg/kg p.o., AZD2281 100 mg/kg i.p., qdx5/wx3w
Procedure: NCI-H460 non-small cell lung carcinoma cells were inoculated subcutaneously (s.c.) in the right flank of CD1 nude mice (3×10^6/0.1 ml of Medium 199). Treatments started three days after tumour injection. Mice were subdivided (10 mice/group) in the following experimental groups:
(§2) a) Vehicle (DMSO 10%) 10 ml/kg, i.p.;
b) DHA 200 mg/kg, p.o. qdx5/wx3w;
d) AZD2281+DHA (doses and schedules as above).
For the latter experiment DHA was administered immediately before AZD2281.
To evaluate the antitumour activity, tumour diameters were measured with a Vernier calliper according to the formula TV=d^2×D/2 where d and D are the shortest and longest diameters, respectively.
When tumours reached a volume of about 1500 mm^3, mice were sacrificed by cervical dislocation. The efficacy of the drug was assessed as the tumour volume inhibition according to the formula reported underneath: […]
Body weight recording was carried out to evaluate body weight loss as calculated in the equation underneath: […]
Wherein BW day x corresponds to the mean weight at day x of the experiment meanwhile BW day 1 corresponds to the mean weight at the first day of the experiment.

[11] = system: HCT116 colon cancer cells; assay: In vivo antitumour activity, s.c. xenograft in CD1 nude mice; conditions: DHA 200 mg/kg p.o., AZD2281 100 mg/kg i.p., qdx5/wx4w
Procedure: HCT116 colon cancer cells were inoculated subcutaneously (s.c.) in the right flank of CD1 nude mice (5×10^6/0.1 ml of Medium 199). Treatments started three days after tumour injection. Mice were subdivided (8 mice/group) in the following experimental groups:
as §2
b) DHA 200 mg/kg, p.o. qdx5/wx4w;
d) AZD2281+DHA (doses and schedules as above);
e) ABT-888 50 mg/kg, i.p. qdx5/wx4w;
f) ABT-888+DHA (doses and schedules as above).
DHA was administered immediately before AZD2281 or ABT-888.
The antitumour activity was evaluated according to the protocol reported hereinabove in example 3 when tumours reached a volume of about 500 mm^3.
Body weight recording was carried out to evaluate body weight loss according to the protocol reported hereinabove in example 3.

Work on `C[C@H]1[C@@H](O)O[C@@H]2O[C@@]3(C)CC[C@H]4[C@H](C)CC[C@@H]1[C@@]24OO3` [DHA, dihydroartemisinin] yielded an IC50 [1] of 8.16 ± 0.5 µM, an IC50 ([2]; MCF7/DX, MCF-7/Dx MDR, 24 h exposure, 48 h recovery) of 0.97 ± 0.3 µM and a resistance index ([2]; MCF-7/Dx MDR versus MCF-7) of 0.92. The IC50 [3] was 0.37 ± 0.08 µM, the IC50 [4] was 0.23 ± 0.02 µM and the IC50 [5] was 5.8 ± 0.5 µM. For the same compound, the IC50 [6] was 1.8 ± 0.1 µM, the IC50 [7] was 2.57 ± 0.8 µM and the IC50 [8] was 1.18 ± 0.3 µM. The IC50 [9] was 1.05 ± 0.08 µM, the “tolerability (body weight loss during the treatment)” value ([10]; NCI-H460 xenograft mice) was “well-tolerated” and the BWL % ([10]; body weight loss, NCI-H460 xenograft, CD1 nude mice) was 0%. For the same compound, the TVI % ([10]; tumour volume inhibition, NCI-H460 xenograft, CD1 nude mice) was 3%, the “TV ± SE” value ([10]; tumour volume, NCI-H460 xenograft, CD1 nude mice, sacrifice at about 1500 mm^3) was 1575 ± 191 and the “tolerability (body weight loss during the treatment)” value ([11]; HCT116 xenograft mice, ABT-888 50 mg/kg) was “well-tolerated”. The BWL % ([11]; body weight loss, HCT116 xenograft, CD1 nude mice, ABT-888 50 mg/kg i.p.) was 1%, the TVI % ([11]; tumour volume inhibition, HCT116 xenograft, CD1 nude mice, ABT-888 50 mg/kg i.p.) was 0% and the “TV ± SE” value ([11]; tumour volume, HCT116 xenograft, CD1 nude mice, ABT-888 50 mg/kg i.p., evaluated at about 500 mm^3) was 447 ± 39.
